Source: US12492188B2, “1H-benzo[D]imidazole derivatives as TLR9 inhibitors for the treatment of fibrosis” (BRISTOL-MYERS SQUIBB COMPANY, priority 2020, dated 2025)
pIC50: −log10 of the molar value. Like-named read-outs stand apart in the source and are kept apart here.

Assays:
Type in all cases: cell-based
human TLR9 = target: T1, human TLR9 (Homo sapiens, UniProt Q9NR96); assay: TLR9 inhibition reporter assay (HEK-Blue cells, secreted embryonic alkaline phosphatase reporter)
T1 construct: host or cells: HEK-Blue cells (HEK293-derived reporter line)
T1 sequence (Q9NR96 26-1032): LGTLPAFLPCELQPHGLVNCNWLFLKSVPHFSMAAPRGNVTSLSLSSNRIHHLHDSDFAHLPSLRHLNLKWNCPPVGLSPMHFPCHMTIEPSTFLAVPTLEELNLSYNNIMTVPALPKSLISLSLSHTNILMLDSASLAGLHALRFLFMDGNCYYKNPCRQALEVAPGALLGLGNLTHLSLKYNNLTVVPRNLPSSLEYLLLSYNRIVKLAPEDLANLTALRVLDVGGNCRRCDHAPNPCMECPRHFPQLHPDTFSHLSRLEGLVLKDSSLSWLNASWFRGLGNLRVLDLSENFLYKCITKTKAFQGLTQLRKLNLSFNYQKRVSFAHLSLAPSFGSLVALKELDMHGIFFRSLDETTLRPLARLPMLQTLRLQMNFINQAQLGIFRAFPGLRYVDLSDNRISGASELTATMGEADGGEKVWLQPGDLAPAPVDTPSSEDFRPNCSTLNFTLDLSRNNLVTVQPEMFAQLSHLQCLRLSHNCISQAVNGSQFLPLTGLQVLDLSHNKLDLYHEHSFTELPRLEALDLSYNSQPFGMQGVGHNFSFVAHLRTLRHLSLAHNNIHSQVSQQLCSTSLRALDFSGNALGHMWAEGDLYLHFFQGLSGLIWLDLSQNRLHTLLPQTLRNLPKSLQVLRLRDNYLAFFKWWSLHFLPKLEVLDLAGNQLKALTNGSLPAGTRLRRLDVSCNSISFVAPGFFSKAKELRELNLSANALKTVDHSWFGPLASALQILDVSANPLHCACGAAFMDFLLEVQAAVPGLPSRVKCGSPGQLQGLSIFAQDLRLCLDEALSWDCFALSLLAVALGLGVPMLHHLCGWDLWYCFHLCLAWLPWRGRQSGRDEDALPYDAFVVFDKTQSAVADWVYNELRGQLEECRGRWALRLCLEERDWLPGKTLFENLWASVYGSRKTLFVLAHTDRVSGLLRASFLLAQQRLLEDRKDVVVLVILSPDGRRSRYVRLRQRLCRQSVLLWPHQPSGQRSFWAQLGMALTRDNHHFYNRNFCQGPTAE
Procedure, shortened: (§1)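 Steps: seed receptor-specific HEK-Blue cells; add compound, 0.05 nM–50 μM; wait 30 min at room temperature; add final gardiquimod 7.5 μM, R848 15.9 μM or ODN2006 5 nM for TLR7, TLR8 or TLR9; incubate 22 h at 37 °C; detect NF-κB/AP-1-driven SEAP.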

human TLR7 = target: T2, human TLR7 (Homo sapiens, UniProt Q9NYK1); assay: TLR7 inhibition reporter assay (HEK-Blue cells, secreted embryonic alkaline phosphatase reporter); details: HEK-Blue cells overexpressing human TLR7, stimulated with gardiquimod 7.5 μM; read-out: TLR 7 IC50
T2 construct: host or cells: HEK-Blue cells (HEK293-derived reporter line)
T2 sequence (Q9NYK1 27-1049): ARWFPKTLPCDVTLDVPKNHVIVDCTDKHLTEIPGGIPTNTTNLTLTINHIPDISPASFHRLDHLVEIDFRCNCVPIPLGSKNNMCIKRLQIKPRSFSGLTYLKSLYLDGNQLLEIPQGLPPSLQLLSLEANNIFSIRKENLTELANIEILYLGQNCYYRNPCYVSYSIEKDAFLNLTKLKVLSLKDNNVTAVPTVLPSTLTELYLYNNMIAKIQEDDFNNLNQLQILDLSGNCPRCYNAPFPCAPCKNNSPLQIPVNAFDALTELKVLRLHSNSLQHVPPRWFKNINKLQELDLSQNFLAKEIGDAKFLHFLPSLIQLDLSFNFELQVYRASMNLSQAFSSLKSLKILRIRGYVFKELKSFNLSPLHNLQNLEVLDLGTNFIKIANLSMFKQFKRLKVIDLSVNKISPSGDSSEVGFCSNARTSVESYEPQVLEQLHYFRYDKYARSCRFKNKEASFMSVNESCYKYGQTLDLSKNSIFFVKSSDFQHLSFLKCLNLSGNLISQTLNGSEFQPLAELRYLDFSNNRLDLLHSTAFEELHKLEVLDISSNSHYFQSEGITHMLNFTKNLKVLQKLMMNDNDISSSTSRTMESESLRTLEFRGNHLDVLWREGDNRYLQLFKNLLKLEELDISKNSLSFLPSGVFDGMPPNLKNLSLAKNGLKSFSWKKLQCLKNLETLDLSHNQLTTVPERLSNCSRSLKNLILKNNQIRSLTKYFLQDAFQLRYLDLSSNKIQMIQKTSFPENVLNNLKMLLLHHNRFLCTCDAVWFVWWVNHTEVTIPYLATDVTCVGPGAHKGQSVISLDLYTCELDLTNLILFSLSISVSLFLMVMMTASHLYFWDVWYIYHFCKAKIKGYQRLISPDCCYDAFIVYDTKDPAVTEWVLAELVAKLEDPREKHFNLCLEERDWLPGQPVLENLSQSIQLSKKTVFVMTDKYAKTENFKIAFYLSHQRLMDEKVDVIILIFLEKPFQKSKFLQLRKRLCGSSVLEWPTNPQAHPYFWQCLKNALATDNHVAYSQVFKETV
Procedure, shortened: as §1

human TLR8 = target: T3, human TLR8 (Homo sapiens, UniProt Q9NR97); assay: TLR8 inhibition reporter assay (HEK-Blue cells, secreted embryonic alkaline phosphatase reporter); details: HEK-Blue cells overexpressing human TLR8, stimulated with R848 15.9 μM; read-out: TLR 8 IC50
T3 construct: host or cells: HEK-Blue cells (HEK293-derived reporter line)
T3 sequence (Q9NR97 27-1041): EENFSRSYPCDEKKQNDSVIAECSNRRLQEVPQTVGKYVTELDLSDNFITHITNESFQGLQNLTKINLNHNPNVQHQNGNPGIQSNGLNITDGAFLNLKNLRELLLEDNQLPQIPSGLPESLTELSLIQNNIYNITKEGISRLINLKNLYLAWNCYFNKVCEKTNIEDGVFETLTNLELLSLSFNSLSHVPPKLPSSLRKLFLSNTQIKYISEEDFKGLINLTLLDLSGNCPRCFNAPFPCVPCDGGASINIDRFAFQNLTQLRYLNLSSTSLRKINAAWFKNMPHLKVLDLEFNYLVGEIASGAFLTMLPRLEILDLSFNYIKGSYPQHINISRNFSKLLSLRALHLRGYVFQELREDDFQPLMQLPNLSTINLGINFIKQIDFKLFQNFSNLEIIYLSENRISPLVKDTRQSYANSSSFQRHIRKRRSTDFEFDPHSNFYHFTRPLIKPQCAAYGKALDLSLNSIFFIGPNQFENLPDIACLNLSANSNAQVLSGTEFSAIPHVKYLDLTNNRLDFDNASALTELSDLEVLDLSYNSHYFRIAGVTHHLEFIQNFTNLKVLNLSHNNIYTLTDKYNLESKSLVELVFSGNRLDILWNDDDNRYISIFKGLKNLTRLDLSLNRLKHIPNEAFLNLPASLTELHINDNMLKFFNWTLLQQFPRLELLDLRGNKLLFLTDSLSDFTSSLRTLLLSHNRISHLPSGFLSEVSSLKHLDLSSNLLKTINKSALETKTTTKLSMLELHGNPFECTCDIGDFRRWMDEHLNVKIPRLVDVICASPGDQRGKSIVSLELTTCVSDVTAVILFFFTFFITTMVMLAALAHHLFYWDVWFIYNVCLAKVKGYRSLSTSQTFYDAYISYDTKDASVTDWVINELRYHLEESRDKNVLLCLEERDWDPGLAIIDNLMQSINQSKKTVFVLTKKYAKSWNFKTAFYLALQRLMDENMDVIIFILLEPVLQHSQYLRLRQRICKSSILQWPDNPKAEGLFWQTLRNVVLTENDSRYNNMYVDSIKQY
Procedure, shortened: as §1

[1] = HEK-Blue cells overexpressing human TLR9, stimulated with ODN2006 5 nM, read-out: TLR 9 IC50
[2] = HEK-Blue human TLR9 reporter cells

| Compound | pIC50 (human TLR9; [1]) | pIC50 (human TLR9; [2]) | pIC50 (human TLR7) | pIC50 (human TLR8) | pIC50 (human TLR9) | pIC50 (human TLR9; HEK-Blue cells overexpressing human TLR9, stimulated with ODN2006 5 nM, 22 hour incubation, reporter readout) |
| --- | --- | --- | --- | --- | --- | --- |
| Cn1c(-c2ccc(S(C)(=O)=O)cc2)nc2cc(C3CCN(C4CCN(C5CCC5)CC4)CC3)cc(F)c21 [Example 205, 5-(1′-cyclobutyl-[1,4′-bipiperidin]-4-yl)-7-fluoro-1-methyl-2-(4-(methylsulfonyl)phenyl)-1H-benzo[d]imidazole] | 6.94 | – | 4.67 | < 4.30 | 6.96 | – |
| Cc1cc(C2CCN(C3CC4CCC(C3)N4C(C)C)CC2)cc2[nH]c(-c3ccc(S(C)(=O)=O)cc3)nc12 (stereo not shown) [Example 332, 6-(1-(8-isopropyl-8-azabicyclo[3.2.1]octan-3-yl)piperidin-4-yl)-4-methyl-2-(4-(methylsulfonyl)phenyl)-1H-benzo[d]imidazole] | 6.76 | 6.77 | < 4.30 | < 4.30 | – | – |
| CC(C)CN1C2CCC1CC(N1CCC(c3cc(F)c4nc(-c5ccc(S(C)(=O)=O)cc5)n(C5CC5)c4c3)CC1)C2 (single isomer, unassigned) [Example 322, 1-cyclopropyl-4-fluoro-6-(1-(8-isobutyl-8-azabicyclo[3.2.1]octan-3-yl)piperidin-4-yl)-2-(4-(methylsulfonyl)phenyl)-1H-benzo[d]imidazole] | 7.92 | 7.92 | 5.85 | < 4.30 | – | – |
| CS(=O)(=O)c1ccc(-c2nc3c(F)cc(C4CCN(C5CC6CCC(C5)N6CC5CC5)CC4)cc3n2C2CC2)cc1 (single isomer, unassigned) [Example 325, 1-cyclopropyl-6-(1-(8-(cyclopropylmethyl)-8-azabicyclo[3.2.1]octan-3-yl)piperidin-4-yl)-4-fluoro-2-(4-(methylsulfonyl)phenyl)-1H-benzo[d]imidazole] | 7.82 | 7.82 | 5.09 | < 4.30 | – | – |
| Cn1c(-c2ccc(S(C)(=O)=O)cc2)nc2c(F)cc(C3CCN(C4CC5CCC(C4)N5C4CCC4)CC3)cc21 (single isomer, unassigned) [Example 293, 6-(1-(8-cyclobutyl-8-azabicyclo[3.2.1]octan-3-yl)piperidin-4-yl)-4-fluoro-1-methyl-2-(4-(methylsulfonyl)phenyl)-1H-benzo[d]imidazole] | 7.96 | 7.96 | 5.09 | 4.35 | – | – |

The next lines start with the values.

| pIC50 (human TLR9; [1]) | pIC50 (human TLR9; [2]) | pIC50 (human TLR7) | pIC50 (human TLR8) | pIC50 (human TLR9) | pIC50 (human TLR9; HEK-Blue cells overexpressing human TLR9, stimulated with ODN2006 5 nM, 22 hour incubation, reporter readout) | Compound |
| --- | --- | --- | --- | --- | --- | --- |
| 7.66 | 7.66 | 4.85 | < 4.30 | – | – | CC(C)CN1CCCC(N2CCC(c3cc(F)c4nc(-c5ccc(S(C)(=O)=O)cc5)n(C)c4c3)CC2)CC1 (stereo not shown) [Example 296, 4-fluoro-6-(1-(1-isobutylazepan-4-yl)piperidin-4-yl)-1-methyl-2-(4-(methylsulfonyl)phenyl)-1H-benzo[d]imidazole] |
| 6.93 | 6.92 | 5.28 | < 4.30 | – | – | CC(C)CN1C2CCC1CC(N1CCC(c3cc(F)c4nc(-c5ccc(S(C)(=O)=O)cc5)n(C)c4c3)CC1)C2 (stereo not shown) [Example 284, 4-fluoro-6-(1-(8-isobutyl-8-azabicyclo[3.2.1]octan-3-yl)piperidin-4-yl)-1-methyl-2-(4-(methylsulfonyl)phenyl)-1H-benzo[d]imidazole] |
| 6.82 | – | < 4.30 | < 4.30 | 6.82 | – | Cn1c(-c2ccc(S(C)(=O)=O)cc2)nc2cc(F)c(C3CCN(C4CC5CCC(C4)N5C4COC4)CC3)cc21 (single isomer, unassigned) [Example 234, 5-fluoro-1-methyl-2-(4-(methylsulfonyl)phenyl)-6-(1-(8-(oxetan-3-yl)-8-azabicyclo[3.2.1]octan-3-yl)piperidin-4-yl)-1H-benzo[d]imidazole] |
| 6.98 | 6.96 | 4.50 | < 4.30 | – | – | Cn1c(-c2ccc(S(C)(=O)=O)cc2)nc2c(F)cc(C3CCN(C4CC5CCC(C4)N5C4CCOCC4)CC3)cc21 (single isomer, unassigned) [Example 288, 4-fluoro-1-methyl-2-(4-(methylsulfonyl)phenyl)-6-(1-(8-(tetrahydro-2H-pyran-4-yl)-8-azabicyclo[3.2.1]octan-3-yl)piperidin-4-yl)-1H-benzo[d]imidazole] |
| – | – | 5.60 | < 4.30 | – | 6.68 | CCn1c(-c2ccc(OC)c(OC)c2)nc2ccc(C3CCN(C4CCN(C(C)C)CC4)CC3)cc21 (single isomer, unassigned) [Example 8, 2-(3,4-dimethoxyphenyl)-1-ethyl-6-(1′-isopropyl-[1,4′-bipiperidin]-4-yl)-1H-benzo[d]imidazole] |
| 7.85 | 7.85 | < 4.30 | 4.78 | – | – | Cn1c(-c2ccc(S(C)(=O)=O)cc2)nc2ccc(C3CCN(C4CCCN(C5CCOCC5)CC4)CC3)c(F)c21 (stereo not shown) [Example 316, 7-fluoro-1-methyl-2-(4-(methylsulfonyl)phenyl)-6-(1-(1-(tetrahydro-2H-pyran-4-yl)azepan-4-yl)piperidin-4-yl)-1H-benzo[d]imidazole] |
